Results as given in US20260250318A1, “COMPOSITIONS AND METHODS FOR CROSSING THE BLOOD BRAIN BARRIER” (VOYAGER THERAPEUTICS, INC., priority 2022, published 2026).

Key:
brain = assay: Matured TTM-001 and TTM-002 variants, NGS enrichment in mouse brain; assay type: in vivo, mice; conditions: relative to AAV9 control
[1] = system: brains, heart, liver, muscle, and DRG of the NHPs; assay: Maturation of TTM-001 and TTM-002 capsids, NGS enrichment in NHP tissues; assay type: in vivo; conditions: relative to AAV9 control
Outline: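 Variants carry mutations within and flanking the loop IV peptide insert: positions 450–466 were triplet-randomized, while positions 449–466 received low-frequency point mutations. The combined pool went into two NHPs, and each peptide was scored by NGS enrichment ratio against AAV9.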

[2] = NGS fold-enrichment of matured AAV capsid variants, NHP brain, RNA
[3] = NGS fold-enrichment, brain of mice
[4] = NGS fold-enrichment, mouse brain
[5] = NGS fold-enrichment of RNA, NHP brain
[6] = NGS fold-enrichment, DRG of NHPs
[7] = NGS fold-enrichment, NHP liver DNA
[8] = NGS fold-enrichment, NHP liver RNA
[9] = NGS fold-enrichment, NHP muscle
[10] = NGS fold-enrichment, RNA, brain of NHPs
[11] = NGS fold-enrichment, heart of NHPs
[12] = NGS fold-enrichment, liver DNA of NHPs
[13] = NGS fold-enrichment, liver RNA of NHPs
[14] = NGS fold-enrichment, muscle of NHPs

Sequence	Fold Enrichment relative to AAV9, Brain (Mouse) (brain; mouse brain) [fold]	Fold Enrichment relative to AAV9, Brain (NHP) [1, 2] [fold]	Fold Enrichment relative to AAV9, DRG (NHP) ([1]; NHP DRG) [fold]	Fold Enrichment relative to AAV9, Heart (NHP) ([1]; NHP heart) [fold]	Fold Enrichment relative to AAV9, Liver DNA (NHP) ([1]; NHP liver, DNA) [fold]	Fold Enrichment relative to AAV9, Liver RNA (NHP) ([1]; NHP liver, RNA) [fold]	Fold Enrichment relative to AAV9, Muscle (NHP) ([1]; NHP muscle) [fold]	Fold Enrichment relative to AAV9, Brain (Mouse) (brain; [3]) [fold]	Fold Enrichment relative to AAV9, Brain (Mouse) (brain; [4]) [fold]	Fold Enrichment relative to AAV9, Brain (NHP) [1, 5] [fold]	Fold Enrichment relative to AAV9, DRG (NHP) [1, 6] [fold]	Fold Enrichment relative to AAV9, DRG (NHP) ([1]; NGS fold-enrichment, NHP DRG) [fold]	Fold Enrichment relative to AAV9, Heart (NHP) ([1]; NGS fold-enrichment, NHP heart) [fold]	Fold Enrichment relative to AAV9, Liver DNA (NHP) [1, 7] [fold]	Fold Enrichment relative to AAV9, Liver RNA (NHP) [1, 8] [fold]	Fold Enrichment relative to AAV9, Muscle (NHP) [1, 9] [fold]	Fold Enrichment relative to AAV9, Brain (NHP) [1, 10] [fold]	Fold Enrichment relative to AAV9, Heart (NHP) [1, 11] [fold]	Fold Enrichment relative to AAV9, Liver DNA (NHP) [1, 12] [fold]	Fold Enrichment relative to AAV9, Liver RNA (NHP) [1, 13] [fold]	also measured
KTVNGGGSPHSKAQNHQT	67.188	54.246	0.375	0.024	0.146	0.000	0.000														
KTENISGSPHSKAQNQQT								83.118	83.118	76.072	0.000	0.000	0.000	0.132	0.115	0.000	76.072	0.000	0.132	0.115	Fold Enrichment relative to AAV9, Muscle (NHP) [1, 14]: 0.000 fold
KAVNVSGSPHSKAQNQQT	57.835	54.586	0.000	0.000	0.023	0.000	0.000														
KTETHSGSPHSKAQNQQT								57.287	57.287	77.974	0.000	0.000	0.067	0.512	0.000	0.000	77.974	0.067	0.512	0.000	Fold Enrichment relative to AAV9, Muscle (NHP) [1, 14]: 0.000 fold
KTINGSGSPHSKAQNIII	76.742	56.630	0.000	0.062	0.056	0.099	0.123														
KTIDGHDSPHKSGQNQHA									10.781	91.058		0.000	0.082	0.000	0.000	0.000					
KTINGRGSPHKRGQNQQT									13.988	120.889		0.100	0.814	0.614	0.458	0.434					
KTINGSGSPHSKAQYIHT								59.649	59.649	76.170	0.000	0.000	0.014	0.168	1.523	0.033	76.170	0.014	0.168	1.523	Fold Enrichment relative to AAV9, Muscle (NHP) [1, 14]: 0.033 fold
KTINGSGSPHSKAQHGLT	117.191	55.999	0.000	0.000	0.244	1.913	0.101														
KAISGHDSPHKSGLNQQT									11.045	78.846		0.000	0.079	0.015	0.000	0.000					
KTINGSGSPHSKAQGAIT	95.696	57.627	0.000	0.000	0.161	0.594	0.000														
KTERVSGSPHSKAQNQQT	135.438	96.943	0.000	0.000	0.144	0.000	0.000	135.438	135.438	96.943	0.000	0.000	0.000	0.144	0.000	0.000	96.943	0.000	0.144	0.000	Fold Enrichment relative to AAV9, Muscle (NHP) [1, 14]: 0.000 fold
KTCNKSGSPHSKAQNQQT								119.496	119.496	83.992	0.000	0.000	0.000	0.000	0.283	0.165	83.992	0.000	0.000	0.283	Fold Enrichment relative to AAV9, Muscle (NHP) [1, 14]: 0.165 fold
